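Five compound concentrations were applied to cells in 96-well plates for 48 hours; endpoints were derived by simple linear interpolation of the resulting dose-response curve. TGI is the concentration that stops growth completely.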
How the values were obtained:
Assay in all cases: NCI tumour cell line growth inhibition, 48 h
[1] = system: 786-0 renal
[2] = system: A498 renal
[3] = system: A549 NSCLC
[4] = system: ACHN renal
[5] = system: BT-549 breast
[6] = system: CAKI-1 renal
[7] = system: CCRF-CEM leukemia
[8] = system: COLO 205 colon
[9] = system: DLD-1 colon
[10] = system: DMS 114 small cell lung
[11] = system: DMS 273 small cell lung
[12] = system: DU-145 prostate
[13] = system: EKVX NSCLC
[14] = system: HCC-2998 colon
[15] = system: HCT-116 colon
[16] = system: HCT-15 colon
[17] = system: HL-60(TB) leukemia
[18] = system: HOP-18 NSCLC
[19] = system: HOP-62 NSCLC
[20] = system: HOP-92 NSCLC
[21] = system: HS 578T breast
[22] = system: HT29 colon
[23] = system: IGROV1 ovarian
[24] = system: K-562 leukemia
[25] = system: KM12 colon
[26] = system: KM20L2 colon
[27] = system: LOX IMVI melanoma
[28] = system: LXFL 529 NSCLC
[29] = system: M14 melanoma
[30] = system: M19-MEL melanoma
[31] = system: MALME-3M melanoma
[32] = system: MCF7 breast
[33] = system: MDA-MB-231 breast
[34] = system: MDA-MB-435
[35] = system: MDA-N
[36] = system: MOLT-4 leukemia
[37] = system: NCI-H226 lung
[38] = system: NCI-H23 lung
[39] = system: NCI-H460 lung
[40] = system: NCI-H522 lung
[41] = system: NCI/ADR-RES ovarian
[42] = system: OVCAR-3 ovarian
[43] = system: OVCAR-4 ovarian
[44] = system: OVCAR-5 ovarian
[45] = system: OVCAR-8 ovarian
[46] = system: PC-3 prostate
[47] = system: RPMI-8226 leukemia
[48] = system: RXF 393 renal
[49] = system: RXF-631 renal
[50] = system: SF-268 CNS
[51] = system: SF-295 CNS
[52] = system: SF-539 CNS
[53] = system: SK-MEL-2 melanoma
[54] = system: SK-MEL-28 melanoma
[55] = system: SK-MEL-5 melanoma
[56] = system: SK-OV-3 ovarian
[57] = system: SN12C renal
[58] = system: SNB-19 CNS
[59] = system: SNB-75 CNS
[60] = system: SNB-78 CNS
[61] = system: SR leukemia
[62] = system: SW-620 colon
[63] = system: T-47D breast
[64] = system: TK-10 renal
[65] = system: U251 CNS
[66] = system: UACC-257 melanoma
[67] = system: UACC-62 melanoma
[68] = system: UO-31 renal
[69] = system: XF 498 CNS

Question: Which TGI [1] does the source give for `Cc1ccccc1C1=C/C(=C(\SS/C(C(=O)c2ccc(OCC(=O)O)c(Cl)c2Cl)=C2\C=C(c3ccccc3C)SS2)C(=O)c2ccc(OCC(=O)O)c(Cl)c2Cl)SS1` here?
Answer: > 70 µM

Question: And the TGI [2]?
Answer: 92.6 µM

Question: What about the TGI [3] of the same molecule?
Answer: > 94.2 µM

Question: And the TGI [4]?
Answer: 65.4 µM

Question: And the TGI [5]?
Answer: > 74.1 µM

Question: What about the TGI [6] of the same molecule?
Answer: 72.9 µM

Question: And the TGI [7]?
Answer: 32.2 µM

Question: And the TGI [8]?
Answer: 47.5 µM

Question: What about the TGI [9] of the same molecule?
Answer: > 67.2 µM

Question: And the TGI [10]?
Answer: 24.7 µM

Question: What about the TGI [11] of the same molecule?
Answer: 36.7 µM

Question: And the TGI [12]?
Answer: > 100 µM

Question: What about the TGI [13] of the same molecule?
Answer: > 96.5 µM

Question: What about the TGI [14] of the same molecule?
Answer: > 100 µM

Question: What about the TGI [15] of the same molecule?
Answer: 56.2 µM

Question: What about the TGI [16] of the same molecule?
Answer: 59.4 µM

Question: What about the TGI [17] of the same molecule?
Answer: 7.65 µM

Question: And the TGI [18]?
Answer: 23.3 µM

Question: And the TGI [19]?
Answer: > 100 µM

Question: What about the TGI [20] of the same molecule?
Answer: 13.8 µM

Question: What about the TGI [21] of the same molecule?
Answer: 51.9 µM

Question: What about the TGI [22] of the same molecule?
Answer: 83.7 µM

Question: And the TGI [23]?
Answer: 38.5 µM

Question: What about the TGI [24] of the same molecule?
Answer: 41.6 µM

Question: And the TGI [25]?
Answer: 51 µM

Question: And the TGI [26]?
Answer: > 100 µM

Question: And the TGI [27]?
Answer: 21.1 µM

Question: And the TGI [28]?
Answer: 16.5 µM

Question: What about the TGI [29] of the same molecule?
Answer: 49.2 µM

Question: And the TGI [30]?
Answer: > 56.4 µM

Question: What about the TGI [31] of the same molecule?
Answer: > 87.6 µM

Question: What about the TGI [32] of the same molecule?
Answer: > 90.7 µM

Question: What about the TGI [33] of the same molecule?
Answer: 47.5 µM

Question: What about the TGI [34] of the same molecule?
Answer: > 100 µM

Question: What about the TGI [35] of the same molecule?
Answer: > 100 µM

Question: And the TGI [36]?
Answer: 47.6 µM

Question: What about the TGI [37] of the same molecule?
Answer: 42.1 µM

Question: What about the TGI [38] of the same molecule?
Answer: 55.7 µM

Question: What about the TGI [39] of the same molecule?
Answer: 60.2 µM

Question: What about the TGI [40] of the same molecule?
Answer: 16.8 µM

Question: And the TGI [41]?
Answer: > 100 µM

Question: What about the TGI [42] of the same molecule?
Answer: 50.6 µM

Question: And the TGI [43]?
Answer: 64.3 µM

Question: What about the TGI [44] of the same molecule?
Answer: > 100 µM

Question: What about the TGI [45] of the same molecule?
Answer: 77.1 µM

Question: What about the TGI [46] of the same molecule?
Answer: 27.4 µM

Question: And the TGI [47]?
Answer: 51.2 µM

Question: What about the TGI [48] of the same molecule?
Answer: 55.2 µM

Question: What about the TGI [49] of the same molecule?
Answer: > 100 µM

Question: And the TGI [50]?
Answer: 45.9 µM

Question: What about the TGI [51] of the same molecule?
Answer: 87 µM

Question: And the TGI [52]?
Answer: 44.9 µM

Question: What about the TGI [53] of the same molecule?
Answer: 42.3 µM

Question: And the TGI [54]?
Answer: 69 µM

Question: And the TGI [55]?
Answer: 58.6 µM

Question: And the TGI [56]?
Answer: > 100 µM

Question: What about the TGI [57] of the same molecule?
Answer: 50.6 µM

Question: What about the TGI [58] of the same molecule?
Answer: > 84.5 µM

Question: What about the TGI [59] of the same molecule?
Answer: 84 µM

Question: What about the TGI [60] of the same molecule?
Answer: 51.4 µM

Question: And the TGI [61]?
Answer: 57.3 µM

Question: What about the TGI [62] of the same molecule?
Answer: 67.7 µM

Question: And the TGI [63]?
Answer: 49 µM

Question: And the TGI [64]?
Answer: > 85.1 µM

Question: What about the TGI [65] of the same molecule?
Answer: 35.9 µM

Question: What about the TGI [66] of the same molecule?
Answer: 71.1 µM

Question: What about the TGI [67] of the same molecule?
Answer: 43.5 µM

Question: And the TGI [68]?
Answer: 51.1 µM

Question: And the TGI [69]?
Answer: 42.6 µM

Question: Which results are given for `CC1(C)COC2(OC1)C1=NS(=O)(=O)CC13CCC2C3(C)C` (configuration not stated)?
Answer: TGI [1]: > 100 µM; TGI [2]: > 100 µM; TGI [3]: > 100 µM; TGI [4]: > 100 µM; TGI [6]: > 100 µM; TGI [7]: > 100 µM; TGI [8]: > 100 µM; TGI [9]: > 100 µM; TGI [10]: > 100 µM; TGI [11]: > 100 µM; TGI [13]: > 100 µM; TGI [15]: > 100 µM; TGI [16]: > 100 µM; TGI [17]: > 100 µM; TGI [18]: > 100 µM; TGI [19]: > 100 µM; TGI [20]: > 100 µM; TGI [22]: > 100 µM; TGI [23]: > 100 µM; TGI [24]: > 100 µM; TGI [25]: > 100 µM; TGI [26]: > 100 µM; TGI [27]: > 100 µM; TGI [28]: > 100 µM; TGI [29]: > 100 µM; TGI [30]: > 100 µM; TGI [31]: > 100 µM; TGI [36]: > 100 µM; TGI [37]: > 100 µM; TGI [38]: > 100 µM; TGI [39]: > 100 µM; TGI [40]: > 100 µM; TGI [42]: > 100 µM; TGI [43]: > 100 µM; TGI [44]: > 100 µM; TGI [45]: > 100 µM; TGI [47]: > 100 µM; TGI [48]: > 100 µM; TGI [49]: > 100 µM; TGI [50]: > 100 µM; TGI [51]: > 100 µM; TGI [52]: > 100 µM; TGI [53]: > 100 µM; TGI [54]: > 100 µM; TGI [55]: > 100 µM; TGI [56]: > 100 µM; TGI [57]: > 100 µM; TGI [58]: > 100 µM; TGI [59]: > 100 µM; TGI [60]: > 100 µM; TGI [61]: > 100 µM; TGI [62]: > 100 µM; TGI [64]: > 100 µM; TGI [65]: > 100 µM; TGI [66]: > 100 µM; TGI [67]: > 100 µM; TGI [68]: > 100 µM; TGI [69]: > 100 µM

Reference: PubChem BioAssay (NCI)
